Measurements as given in US20210024499A1, “OXIDIZED BIS(3-INDOLYL)METHANES AND USES THEREOF” (Sanford Burnam Prebys Medical Discovery Institute, priority 2018, published 2021).

Columns and labels:
MDA-MB-231 cancer cells = assay: Cell viability (MTT) assay, MDA-MB-231; type: cell-based; details: Homo sapiens; inhibiting the growth of MDA-MB-231 cancer cells, cell viability assay (Table 6)
Procedure: (§1) Cell viability was analyzed by using a colorimetric 3-(4,5-dimethylthiazol-[…]2-yl)-2,5-diphenyletetrazolium Bromide (MTT) assay that determines mitochondrial dehydrogenase activities in the living cells with a colorimetric method. Cells treated with test compounds were incubated with MTT and their effect on the viability of the cells was assayed by the ability of treated cells to reduce the yellow tetrazolium dye MTT to its insoluble formazan, which has a purple color. […]

HCT116 cells = assay: PARP cleavage assay (Western blotting), HCT116; type: cell-based; details: 0.5 μM, 6 hours, Western blotting
Excerpt: (§2) Compound 1a had no effect under the same conditions (FIG. 1A). […] Compound 1a, 28a, 47a, 48a, 73a, 39a, 70a, 103a, 89a and 88a had no effect under the same conditions (FIG. 3B-C).

HCT116 cancer cells [1] = assay: Cell viability (MTT) assay, HCT116; type: cell-based; details: Homo sapiens, HCT-116; inhibiting the growth of HCT116 cancer cells, cell viability assay (Table 5)
Procedure: as §1

MDA-MB-231 cells = assay: PARP cleavage assay (Western blotting), MDA-MB-231; type: cell-based; details: 6 hours
Excerpt: as §2

HCT116 cancer cells [2] = assay: Apoptosis assay, Annexin V-FITC/propidium iodide flow cytometry; type: cell-based; details: Homo sapiens, HCT-116, 6 hours, Annexin V-FITC/PI flow cytometry (Table 4)
Procedure: HCT116 cancer cells plated at a density of 1×10^6 per well on six-well plates were treated with different concentration of test compounds for 6 hours, and then the suspension and the adherent cells were collected, stained with Annexin V-FITC for 15 minutes and with propodium iodide for 5 minutes, and analyzed immediately by cytoFLEX Flow Cytometry System (Beckman-Coulter, Miami, Fla., USA) using FITC and PC5.5 (Table 4).

pBind-RXRa-LBD and Nur77 = assay: Mammalian one hybrid assay, Gal4-RXRa-LBD with Nur77; type: cell-based; details: cotransfection of pBind-RXRa-LBD and Nur77, Dual-Luciferase (FIG. 10)
Procedure: (§3) HEK293T cells were co-transfected with pG5 Luciferase reporter together with the plasmid encoding RXRa-LBD fused with the Gal4 DNA-binding domain and other expression plasmids. After transfection, cells were treated with DMSO or a test compound, and assayed by using the Dual-Luciferase Reporter Assay System (Promega). Transfection efficiency was normalized to Renilla luciferase activity.
(§4) To exclude the possibility that Compound 1 acted on RXRa, Glu453 and Glu456 in the RXRa activation function 2 (AF2) region were substituted with Ala and the resulting mutant, RXRa-LBD/E453,6A, was used.

[3] = tested on: Nur77 and pBind-RXRa-LBD-E453,6A; assay: Mammalian one hybrid assay, RXRa-LBD/E453,6A mutant with Nur77; type: cell-based; details: cells transfected with Nur77 and pBind-RXRa-LBD-E453,6A
Procedure: as §3, §4

[4] = tested on: mTOR markers p-S6 and p-4EBP1; assay: mTOR inhibition: expression of mTOR markers; type: cell-based; details: MDA-MB-231 cells, 1 μM, 6 hours
PyMT mammary tumor = assay: MMTV-PyMT mice breast cancer model; type: in vivo
Procedure: Female MMTV-PyMT mice of 12 weeks old were randomly divided into two groups (n=7 each), treated with a daily oral dose of test compound for 18 days. Standard histopathological analysis of tumor tissue was performed (see Example A-19). Test compounds were dissolved in DMSO and diluted with normal saline containing 5.0% (V/V) Tween-80 to a final concentration 0.5 mg/ml. Normal saline with DMSO and 5.0% Tween-80 was employed as the vehicle control.
4 μm thick sections were deparaffinized and rehydrated using xylene and a graded series of ethanol (100, 95, 85, 75, 50%), followed by washing in PBS. Antigen retrieval was performed in 10 mM sodium citrate buffer (pH 6.0), which was microwaved at 100° C. for 20 minutes. After rinsed twice in PBS, sections were blocked at room temperature for 1 hour by using 10% normal goat serum, followed by incubation with anti-ki-67, anti-cleaved-caspase-3, overnight (at least 17 hours) at 4° C. Colors were developed with a DAB horseradish peroxidase color development kit.

[5] = tested on: Nur77 interaction with Bcl-2; assay: Cell-based co-immunoprecipitation of Nur77 and Bcl-2; details: Nur77 transfected in HeLa cells
Procedure: Western blotting and co-immunopreciptations (co-IP) were performed. Briefly, cells transfected with or without expression vectors for Nur77 and Bcl-2 were treated with test compounds for 2 hours. The effect of compounds on the interaction of endogenous or transfected Nur77 and Bcl-2 was analyzed by co-immunoprecipitation using appropriate antibodies. Proteins immunoprecipitated from cells by an appropriate anti-Nur77 or anti-Bcl-2 antibody were analyzed by Western blotting.

[6] = tested on: Nur77 interaction with Bcl-2; assay: Confocal microscopy colocalization of Nur77 with Bcl-2; type: cell-based
Nur77 [7] = molecular target: T1, Nur77 (Homo sapiens, UniProt P22736); assay: Cellular fractionation and immunostaining: mitochondrial targeting of Nur77; type: cell-based; details: mitochondria fractionation, 1μM
T1 construct: expressed in transfected cells
T1 sequence (P22736 whole entry): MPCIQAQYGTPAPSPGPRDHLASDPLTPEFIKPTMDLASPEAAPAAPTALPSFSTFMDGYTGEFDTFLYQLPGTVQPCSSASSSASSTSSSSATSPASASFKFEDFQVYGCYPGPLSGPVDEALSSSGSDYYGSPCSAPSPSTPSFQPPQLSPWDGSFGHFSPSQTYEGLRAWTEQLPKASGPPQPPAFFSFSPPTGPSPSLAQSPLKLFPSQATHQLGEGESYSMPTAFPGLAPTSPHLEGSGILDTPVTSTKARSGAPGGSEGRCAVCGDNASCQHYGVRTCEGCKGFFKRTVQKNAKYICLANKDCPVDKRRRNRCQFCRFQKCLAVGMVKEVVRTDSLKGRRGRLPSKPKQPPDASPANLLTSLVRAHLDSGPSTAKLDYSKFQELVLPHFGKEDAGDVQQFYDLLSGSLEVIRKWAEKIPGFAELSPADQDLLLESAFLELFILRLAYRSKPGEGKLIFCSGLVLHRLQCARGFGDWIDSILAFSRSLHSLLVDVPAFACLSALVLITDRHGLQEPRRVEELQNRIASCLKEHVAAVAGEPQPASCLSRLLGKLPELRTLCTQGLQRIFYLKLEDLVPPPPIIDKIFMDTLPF
Procedure: (§5) For cellular fractionation, cells were lysed in cold buffer A (10 mM HEPES-KOH (pH 7.9), 1.5 mM MgCl2, 10 mM KCl, 0.5 mM dithiothreitol) with a cocktail of proteinase inhibitors on ice for 10 min as described. Cytoplasmic fraction was collected by centrifuging at 6000 rpm for 30 seconds. Pellets containing nuclei were resuspended in cold high-salt buffer C (20 mM HEPES-KOH (pH 7.9), 25% glycerol, 420 mM NaCl, 1.5 mM MgCl2, 0.2 mM EDTA, 0.5 mM dithiothreitol) with a cocktail of proteinase inhibitors on ice for 30 minutes.

Nur77 [8] = assay: as above; type: cell-based; details: immunostaining
Procedure: as §5

| IC50 (MDA-MB-231 cancer cells) | IC50 (HCT116 cancer cells [1]) | IC50 (HCT116 cancer cells [2]) | Structure (SMILES) | PARP cleavage (MDA-MB-231 cells; 0.5 μM) | also measured |
| --- | --- | --- | --- | --- | --- |
| ≥ 5 µM | ≥ 5 µM | – | FC(F)(F)c1ccc(C(c2c[nH]c3ccccc23)c2c[nH]c3ccccc23)cc1 [Compound 1a, reference compound] | no effect | PARP cleavage (HCT116 cells): no effect |
| – | < 0.5 µM | < 0.5 µM | Clc1ccc([C+](c2c[nH]c3ccccc23)c2c[nH]c3ccccc23)cc1 [Compound 5, Bis(1H-indol-3-yl)(4-chlorophenyl)methylium methanesulfonate] | – | – |
| – | 0.5 to 5 µM | 0.5 to 5 µM | COc1ccc([C+](c2c[nH]c3ccccc23)c2c[nH]c3ccccc23)cc1 [Compound 7, Bis(1H-indol-3-yl)(4-methoxyphenyl)methylium methanesulfonate] | – | – |
| – | < 0.5 µM | < 0.5 µM | COC(=O)c1ccc([C+](c2c[nH]c3ccccc23)c2c[nH]c3ccccc23)cc1 [Compound 8, Bis(1H-indol-3-yl)(4-(methoxycarbonyl)phenyl)methylium methanesulfonate] | – | – |
| – | – | – | CC1=C(/C=C/C(C)=C\C=C\C(C)=C\C(=O)O)C(C)(C)CCC1 [Compound 9-cis-RA, 9-cis-RA, reference compound] | – | reporter transcriptional activity (pBind-RXRa-LBD and Nur77): strongly activate; reporter transcriptional activity [3]: failed to induce the reporter activity |
| < 0.5 µM | < 0.5 µM | – | Cn1cc([C+](c2ccc(C(F)(F)F)cc2)c2c[nH]c3ccccc23)c2ccccc21 [Compound 28, (1-Methyl-1H-indol-3-yl)(1H-indol-3-yl)(4-(trifluoromethyl)phenyl)methylium methanesulfonate] | effectively induced PARP cleavage | expression levels of mTOR markers p-S6 and p-4EBP1 [4]: reduced the expression levels; expression levels of mTOR markers p-S6 and p-mTOR in tumor (PyMT mammary tumor; 3 mg/kg): markedly reduced; growth of PyMT mammary tumor (PyMT mammary tumor; 3 mg/kg daily oral, 18 days): inhibited the growth of PyMT mammary tumor; PARP cleavage (MDA-MB-231 cells; 1 μM): effectively induce PARP cleavage; Nur77 interaction with Bcl-2 (Co-IP) [5]: interacted with Bcl-2; colocalization of transfected GFP-Nur77 (and GFP-Nur77-LBD) with Bcl-2 [6]: promoted extensive colocalization; Myc-Nur77 in heavy membrane (HM) fraction (Nur77 [7]): accumulated in the mitochondria-enriched heavy membrane (HM) fraction; Myc-Nur77-LBD colocalization with mitochondria (Nur77 [8]): colocalized extensively with the mitochondria |
| < 0.5 µM | < 0.5 µM | – | Fc1ccc2[nH]cc([C+](c3ccc(C(F)(F)F)cc3)c3c[nH]c4ccccc34)c2c1.[Cl-] [Compound 73, (5-Fluoro-1H-indol-3-yl)(1H-indol-3-yl)(4-(trifluoromethyl)phenyl)methylium chloride] | effectively induced PARP cleavage | expression levels of mTOR markers p-S6 and p-4EBP1 [4]: reduced the expression levels; PARP cleavage (MDA-MB-231 cells; 1 μM): effectively induce PARP cleavage |
| – | 0.5 to 5 µM | 0.5 to 5 µM | O=C(O)c1ccc([C+](c2c[nH]c3ccccc23)c2c[nH]c3ccccc23)cc1 [Compound 82, Bis(1H-indol-3-yl)(4-carboxyphenyl)methylium methanesulfonate] | – | – |
